Test results from BindingDB's records for doi:10.1016/j.bmcl.2017.12.053 (n/a, 2018).

Assays:
[1] = Inhibition of 20s immunoproteasome beta2 trypsin-like activity in human spleen using Boc-Leu-Arg-Arg-AMC as substrate after 10 mins by fluorescence assay
[2] = Inhibition of 20s constitutive proteasome beta2 trypsin-like activity in human erythrocytes using Boc-Leu-Arg-Arg-AMC as substrate after 10 mins by fluorescence assay
[3] = Inhibition of 20s immunoproteasome beta1 caspase-like activity in human spleen using Ac-Pro-Ala-Leu-AMC as substrate after 10 mins by fluorescence assay
[4] = Inhibition of 20s immunoproteasome beta5 chymotrypsin-like activity in human spleen using Suc-Leu-Leu-Val-Tyr-AMC as substrate after 10 mins by fluorescence assay
[5] = Inhibition of 20s constitutive proteasome beta1 caspase-like activity in human erythrocytes using Z-Leu-Leu-Glu-AMC as substrate after 10 mins by fluorescence assay

| Ki [1] [µM] | Ki [2] [µM] | Ki [3] [µM] | Ki [4] [µM] | Ki [5] [µM] | SMILES |
| --- | --- | --- | --- | --- | --- |
| 4.38 | 20 |  |  |  | CSc1ccc(/C=C2\NC(=S)N(c3ccccc3)C2=O)cc1 |
|  |  | 2.64 | 2.01 |  | COc1ccc(/C=C2\NC(=S)N(c3ccccc3)C2=O)cc1OC |
|  |  | 6.53 | 2.35 |  | COc1ccc(/C=C2\NC(=S)N(c3ccccc3)C2=O)cc1O |
| 6.71 |  |  | 11.5 |  | COc1cc(/C=C2\NC(=S)N(c3ccccc3)C2=O)ccc1O |
| 5.57 |  |  |  | 9.64 | O=C1/C(=C/c2ccc(Oc3ccccc3)cc2)NC(=S)N1c1cccc2ccccc12 |
|  |  |  | 10.9 |  | COc1ccc(/C=C2\NC(=S)N(c3ccccc3)C2=O)cc1 |
